Tests used:
[1] = system: Tyrosine-protein kinase ABL1 (Homo sapiens), P00519 [H396P]; conditions: Compound concentration 1000.0 nM
[2] = system: Tyrosine-protein kinase ABL1 (Homo sapiens), P00519 [Q252H]; conditions: Compound concentration 1000.0 nM
[3] = molecular target: Tyrosine-protein kinase ABL1 (Homo sapiens) (UniProt P00519); conditions: Compound concentration 1000.0 nM
[4] = molecular target: Ankyrin repeat and protein kinase domain-containing protein 1 (Homo sapiens) (UniProt Q8NFD2); conditions: Compound concentration 1000.0 nM
[5] = molecular target: Cyclin-dependent kinase 19 (Homo sapiens) (UniProt Q9BWU1); conditions: Compound concentration 1000.0 nM
[6] = molecular target: Cyclin-dependent kinase 4 (Homo sapiens) (UniProt P11802); conditions: Compound concentration 1000.0 nM
[7] = molecular target: Death-associated protein kinase 2 (Homo sapiens) (UniProt Q9UIK4); conditions: Compound concentration 1000.0 nM
[8] = molecular target: Serine/threonine-protein kinase DCLK3 (Homo sapiens) (UniProt Q9C098); conditions: Compound concentration 1000.0 nM
[9] = molecular target: Ephrin type-B receptor 4 (Homo sapiens) (UniProt P54760); conditions: Compound concentration 1000.0 nM
[10] = molecular target: Receptor tyrosine-protein kinase erbB-4 (Homo sapiens) (UniProt Q15303); conditions: Compound concentration 1000.0 nM
[11] = molecular target: Mitogen-activated protein kinase 6 (Homo sapiens) (UniProt Q16659); conditions: Compound concentration 1000.0 nM
[12] = molecular target: Mitogen-activated protein kinase 15 (Homo sapiens) (UniProt Q8TD08); conditions: Compound concentration 1000.0 nM
[13] = molecular target: Homeodomain-interacting protein kinase 1 (Homo sapiens) (UniProt Q86Z02); conditions: Compound concentration 1000.0 nM
[14] = molecular target: Insulin receptor-related protein (Homo sapiens) (UniProt P14616); conditions: Compound concentration 1000.0 nM
[15] = system: Mast/stem cell growth factor receptor Kit (Homo sapiens), P10721 [D816H]; conditions: Compound concentration 1000.0 nM
[16] = molecular target: Dual specificity mitogen-activated protein kinase kinase 3 (Homo sapiens) (UniProt P46734); conditions: Compound concentration 1000.0 nM
[17] = molecular target: Dual specificity mitogen-activated protein kinase kinase 6 (Homo sapiens) (UniProt P52564); conditions: Compound concentration 1000.0 nM
[18] = molecular target: MAP kinase-interacting serine/threonine-protein kinase 1 (Homo sapiens) (UniProt Q9BUB5); conditions: Compound concentration 1000.0 nM
[19] = molecular target: Mitogen-activated protein kinase kinase kinase 10 (Homo sapiens) (UniProt Q02779); conditions: Compound concentration 1000.0 nM
[20] = molecular target: Serine/threonine-protein kinase Nek3 (Homo sapiens) (UniProt P51956); conditions: Compound concentration 1000.0 nM
[21] = molecular target: Serine/threonine-protein kinase NLK (Homo sapiens) (UniProt Q9UBE8); conditions: Compound concentration 1000.0 nM
[22] = molecular target: Serine/threonine-protein kinase OSR1 (Homo sapiens) (UniProt O95747); conditions: Compound concentration 1000.0 nM
[23] = molecular target: Serine/threonine-protein kinase PAK 5 (Homo sapiens) (UniProt Q9P286); conditions: Compound concentration 1000.0 nM
[24] = molecular target: 3-phosphoinositide-dependent protein kinase 1 (Homo sapiens) (UniProt O15530); conditions: Compound concentration 1000.0 nM
[25] = molecular target: Phosphatidylinositol 4-phosphate 3-kinase C2 domain-containing subunit beta (Homo sapiens) (UniProt O00750); conditions: Compound concentration 1000.0 nM
[26] = system: Phosphatidylinositol 4,5-bisphosphate 3-kinase catalytic subunit alpha isoform (Homo sapiens), P42336 [E545K]; conditions: Compound concentration 1000.0 nM
[27] = molecular target: Serine/threonine-protein kinase pim-1 (Homo sapiens) (UniProt P11309); conditions: Compound concentration 1000.0 nM
[28] = molecular target: Serine/threonine-protein kinase pim-2 (Homo sapiens) (UniProt Q9P1W9); conditions: Compound concentration 1000.0 nM
[29] = molecular target: cAMP-dependent protein kinase catalytic subunit beta (Homo sapiens) (UniProt P22694); conditions: Compound concentration 1000.0 nM
[30] = molecular target: Serine/threonine-protein kinase PLK1 (Homo sapiens) (UniProt P53350); conditions: Compound concentration 1000.0 nM
[31] = molecular target: Ribosomal protein S6 kinase alpha-5 (Homo sapiens) (UniProt O75582); conditions: Compound concentration 1000.0 nM
[32] = molecular target: SNF-related serine/threonine-protein kinase (Homo sapiens) (UniProt Q9NRH2); conditions: Compound concentration 1000.0 nM
[33] = molecular target: Serine/threonine-protein kinase TNNI3K (Homo sapiens) (UniProt Q59H18); conditions: Compound concentration 1000.0 nM
[34] = molecular target: BDNF/NT-3 growth factors receptor (Homo sapiens) (UniProt Q16620); conditions: Compound concentration 1000.0 nM
[35] = molecular target: Tyrosine-protein kinase receptor TYRO3 (Homo sapiens) (UniProt Q06418); conditions: Compound concentration 1000.0 nM
[36] = molecular target: Tyrosine-protein kinase Yes (Homo sapiens) (UniProt P07947); conditions: Compound concentration 1000.0 nM
[37] = molecular target: 5-hydroxytryptamine receptor 7 (Homo sapiens) (UniProt P34969); conditions: Compound concentration 10.0 uM
[38] = molecular target: T1, D(4) dopamine receptor (Homo sapiens) (UniProt P21917); conditions: Compound concentration 10.0 uM
T1 sequence (whole entry): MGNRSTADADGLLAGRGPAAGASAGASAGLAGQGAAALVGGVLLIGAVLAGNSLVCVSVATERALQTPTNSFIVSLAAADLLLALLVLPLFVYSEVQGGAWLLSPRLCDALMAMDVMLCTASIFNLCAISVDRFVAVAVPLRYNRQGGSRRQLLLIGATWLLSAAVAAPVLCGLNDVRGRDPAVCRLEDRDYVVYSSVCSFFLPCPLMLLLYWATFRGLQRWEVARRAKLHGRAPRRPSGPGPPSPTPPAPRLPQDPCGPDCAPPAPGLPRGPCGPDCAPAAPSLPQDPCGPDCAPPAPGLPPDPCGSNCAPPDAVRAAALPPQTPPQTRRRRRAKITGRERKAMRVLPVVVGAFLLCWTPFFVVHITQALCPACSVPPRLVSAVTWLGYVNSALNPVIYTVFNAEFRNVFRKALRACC

[39] = molecular target: Histamine H2 receptor (Homo sapiens) (UniProt P25021); conditions: Compound concentration 10.0 uM

Chain of Serine/threonine-protein kinase pim-2 (Homo sapiens) (Q9P1W9 whole entry, looked up): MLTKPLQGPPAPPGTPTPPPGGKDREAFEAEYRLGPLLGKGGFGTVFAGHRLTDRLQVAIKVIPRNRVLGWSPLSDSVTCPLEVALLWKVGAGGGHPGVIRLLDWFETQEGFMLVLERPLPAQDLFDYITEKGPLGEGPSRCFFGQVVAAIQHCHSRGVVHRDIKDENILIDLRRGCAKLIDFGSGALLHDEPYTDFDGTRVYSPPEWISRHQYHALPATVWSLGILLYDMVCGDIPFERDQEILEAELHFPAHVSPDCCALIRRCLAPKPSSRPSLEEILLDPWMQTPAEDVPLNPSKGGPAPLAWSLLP
Chain of Serine/threonine-protein kinase DCLK3 (Homo sapiens) (Q9C098 whole entry): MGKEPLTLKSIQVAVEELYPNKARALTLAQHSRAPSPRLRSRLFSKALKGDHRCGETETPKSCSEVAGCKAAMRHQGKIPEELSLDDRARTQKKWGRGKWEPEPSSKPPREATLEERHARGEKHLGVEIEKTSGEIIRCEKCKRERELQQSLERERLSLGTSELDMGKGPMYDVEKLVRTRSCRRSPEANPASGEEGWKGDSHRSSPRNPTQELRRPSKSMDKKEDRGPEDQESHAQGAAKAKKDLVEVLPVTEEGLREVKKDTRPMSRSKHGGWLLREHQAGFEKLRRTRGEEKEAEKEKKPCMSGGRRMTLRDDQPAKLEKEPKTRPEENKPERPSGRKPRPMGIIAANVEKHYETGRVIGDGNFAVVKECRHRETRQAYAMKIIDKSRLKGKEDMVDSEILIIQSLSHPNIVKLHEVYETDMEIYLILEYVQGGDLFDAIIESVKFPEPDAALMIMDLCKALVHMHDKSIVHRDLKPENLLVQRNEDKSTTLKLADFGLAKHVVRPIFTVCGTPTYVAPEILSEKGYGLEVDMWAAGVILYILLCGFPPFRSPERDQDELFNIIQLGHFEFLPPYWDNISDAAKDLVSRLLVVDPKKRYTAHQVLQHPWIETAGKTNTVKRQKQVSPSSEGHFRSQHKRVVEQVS
Chain of Mitogen-activated protein kinase 6 (Homo sapiens) (Q16659 whole entry): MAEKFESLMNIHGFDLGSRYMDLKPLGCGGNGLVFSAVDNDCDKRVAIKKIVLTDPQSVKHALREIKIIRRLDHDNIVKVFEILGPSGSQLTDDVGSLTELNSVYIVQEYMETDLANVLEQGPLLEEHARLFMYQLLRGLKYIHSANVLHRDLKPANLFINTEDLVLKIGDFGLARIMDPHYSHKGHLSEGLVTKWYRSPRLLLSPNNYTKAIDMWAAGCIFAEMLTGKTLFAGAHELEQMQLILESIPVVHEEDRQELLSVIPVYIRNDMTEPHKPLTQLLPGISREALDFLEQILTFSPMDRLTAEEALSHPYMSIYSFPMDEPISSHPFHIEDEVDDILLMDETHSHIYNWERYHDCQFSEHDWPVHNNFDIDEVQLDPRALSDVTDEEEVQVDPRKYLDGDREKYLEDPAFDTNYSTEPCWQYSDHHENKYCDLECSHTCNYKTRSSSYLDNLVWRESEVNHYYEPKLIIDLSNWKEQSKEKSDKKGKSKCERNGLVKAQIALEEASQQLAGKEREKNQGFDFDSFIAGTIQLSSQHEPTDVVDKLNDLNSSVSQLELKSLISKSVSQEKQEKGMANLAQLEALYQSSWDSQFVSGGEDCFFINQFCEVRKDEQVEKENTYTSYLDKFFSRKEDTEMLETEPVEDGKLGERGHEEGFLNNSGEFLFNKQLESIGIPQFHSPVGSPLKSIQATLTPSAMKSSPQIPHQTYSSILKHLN
Chain of Serine/threonine-protein kinase PAK 5 (Homo sapiens) (Q9P286 whole entry, looked up): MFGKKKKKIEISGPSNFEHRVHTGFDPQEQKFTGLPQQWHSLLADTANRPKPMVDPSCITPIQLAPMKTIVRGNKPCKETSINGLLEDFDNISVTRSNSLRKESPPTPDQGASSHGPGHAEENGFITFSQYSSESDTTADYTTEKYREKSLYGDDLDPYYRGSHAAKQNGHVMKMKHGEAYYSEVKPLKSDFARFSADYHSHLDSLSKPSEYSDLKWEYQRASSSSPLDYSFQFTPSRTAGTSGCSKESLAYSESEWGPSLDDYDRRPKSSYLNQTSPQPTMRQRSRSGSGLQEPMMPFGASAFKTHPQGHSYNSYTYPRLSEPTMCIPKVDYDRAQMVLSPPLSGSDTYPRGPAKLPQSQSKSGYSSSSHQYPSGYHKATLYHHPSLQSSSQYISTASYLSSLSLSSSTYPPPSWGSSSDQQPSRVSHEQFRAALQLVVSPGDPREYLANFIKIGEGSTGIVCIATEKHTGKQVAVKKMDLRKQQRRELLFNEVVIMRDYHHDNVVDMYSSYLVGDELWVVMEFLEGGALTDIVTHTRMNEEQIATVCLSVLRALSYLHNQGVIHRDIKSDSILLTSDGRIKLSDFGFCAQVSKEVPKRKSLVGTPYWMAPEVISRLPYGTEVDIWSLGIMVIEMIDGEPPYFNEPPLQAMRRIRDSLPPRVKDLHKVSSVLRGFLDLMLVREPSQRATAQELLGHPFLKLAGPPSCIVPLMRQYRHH
Chain of Phosphatidylinositol 4-phosphate 3-kinase C2 domain-containing subunit beta (Homo sapiens) (O00750 whole entry, the tested form may be a part, canonical isoform): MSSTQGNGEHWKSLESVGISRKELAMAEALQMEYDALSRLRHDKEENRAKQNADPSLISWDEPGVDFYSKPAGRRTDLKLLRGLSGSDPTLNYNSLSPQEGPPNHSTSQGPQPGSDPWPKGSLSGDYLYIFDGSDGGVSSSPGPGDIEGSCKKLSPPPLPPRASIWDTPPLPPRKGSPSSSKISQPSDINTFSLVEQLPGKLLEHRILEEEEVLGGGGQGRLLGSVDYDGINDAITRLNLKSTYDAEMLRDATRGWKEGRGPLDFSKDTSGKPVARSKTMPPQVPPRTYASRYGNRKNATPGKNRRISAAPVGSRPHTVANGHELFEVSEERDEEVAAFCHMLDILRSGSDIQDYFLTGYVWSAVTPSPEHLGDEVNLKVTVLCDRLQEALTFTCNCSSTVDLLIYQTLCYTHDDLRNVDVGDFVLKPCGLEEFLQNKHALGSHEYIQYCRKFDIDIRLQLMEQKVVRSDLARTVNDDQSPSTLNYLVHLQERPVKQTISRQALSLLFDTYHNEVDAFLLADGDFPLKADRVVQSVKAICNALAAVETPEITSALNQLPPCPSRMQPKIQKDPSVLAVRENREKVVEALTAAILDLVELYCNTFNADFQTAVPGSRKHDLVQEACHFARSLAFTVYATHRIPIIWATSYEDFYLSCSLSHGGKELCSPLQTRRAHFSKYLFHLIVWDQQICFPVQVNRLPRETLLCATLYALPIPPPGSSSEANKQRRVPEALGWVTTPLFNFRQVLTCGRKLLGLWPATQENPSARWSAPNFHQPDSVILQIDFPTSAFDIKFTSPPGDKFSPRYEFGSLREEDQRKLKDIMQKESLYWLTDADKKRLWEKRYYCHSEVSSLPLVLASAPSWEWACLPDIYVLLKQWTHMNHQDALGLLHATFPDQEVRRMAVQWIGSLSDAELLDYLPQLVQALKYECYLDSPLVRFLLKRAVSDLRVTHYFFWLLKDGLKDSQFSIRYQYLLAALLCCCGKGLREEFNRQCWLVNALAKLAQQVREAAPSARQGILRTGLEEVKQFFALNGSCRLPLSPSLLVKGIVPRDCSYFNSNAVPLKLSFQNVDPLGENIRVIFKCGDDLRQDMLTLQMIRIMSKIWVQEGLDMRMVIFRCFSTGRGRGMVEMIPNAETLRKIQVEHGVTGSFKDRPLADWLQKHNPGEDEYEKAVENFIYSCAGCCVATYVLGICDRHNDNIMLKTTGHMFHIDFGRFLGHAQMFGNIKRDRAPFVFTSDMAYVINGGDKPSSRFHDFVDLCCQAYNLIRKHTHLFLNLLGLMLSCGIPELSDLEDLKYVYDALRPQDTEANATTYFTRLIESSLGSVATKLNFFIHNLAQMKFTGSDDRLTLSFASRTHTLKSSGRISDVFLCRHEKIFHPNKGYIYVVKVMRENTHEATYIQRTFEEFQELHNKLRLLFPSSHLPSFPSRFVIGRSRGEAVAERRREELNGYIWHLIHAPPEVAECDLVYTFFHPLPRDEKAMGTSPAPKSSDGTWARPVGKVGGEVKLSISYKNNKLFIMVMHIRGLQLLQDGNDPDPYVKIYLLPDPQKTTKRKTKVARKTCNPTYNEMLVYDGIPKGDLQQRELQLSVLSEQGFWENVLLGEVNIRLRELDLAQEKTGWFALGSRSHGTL
Chain of Ankyrin repeat and protein kinase domain-containing protein 1 (Homo sapiens) (Q8NFD2 whole entry, the tested form may be a part): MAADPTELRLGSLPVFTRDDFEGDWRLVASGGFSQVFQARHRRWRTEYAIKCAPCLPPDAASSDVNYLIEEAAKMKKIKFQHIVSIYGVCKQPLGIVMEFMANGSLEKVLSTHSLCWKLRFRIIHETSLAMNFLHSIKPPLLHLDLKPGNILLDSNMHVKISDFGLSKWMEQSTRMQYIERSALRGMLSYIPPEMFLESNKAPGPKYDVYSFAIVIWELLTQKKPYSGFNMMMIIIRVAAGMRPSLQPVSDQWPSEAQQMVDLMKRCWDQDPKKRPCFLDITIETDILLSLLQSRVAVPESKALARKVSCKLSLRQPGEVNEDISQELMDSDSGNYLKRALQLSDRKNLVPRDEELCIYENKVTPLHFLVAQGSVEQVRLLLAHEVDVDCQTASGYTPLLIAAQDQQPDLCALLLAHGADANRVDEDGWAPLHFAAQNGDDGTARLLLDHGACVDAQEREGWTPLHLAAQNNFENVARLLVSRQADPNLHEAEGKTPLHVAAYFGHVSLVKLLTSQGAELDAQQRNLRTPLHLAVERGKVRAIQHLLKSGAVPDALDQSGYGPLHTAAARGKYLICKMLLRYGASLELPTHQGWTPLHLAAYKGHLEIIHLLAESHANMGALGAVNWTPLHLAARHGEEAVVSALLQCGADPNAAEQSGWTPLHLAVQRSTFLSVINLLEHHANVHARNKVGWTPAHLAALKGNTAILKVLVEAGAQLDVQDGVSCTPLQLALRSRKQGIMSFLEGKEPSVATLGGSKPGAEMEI

Cn1cncc1[C@@](O)(COc1ccc(C#N)cc1-c1ccc(OC(F)(F)F)cc1)c1ccc(C#N)cc1 [A-108]
inactive: residual activity [1] 88% | residual activity [2] 84% | residual activity [3] 95% | residual activity [4] 100% | residual activity [5] 64% | residual activity [6] 100% | residual activity [7] 97% | residual activity [8] 94% | residual activity [9] 100% | residual activity [10] 100% | residual activity [11] 93% | residual activity [12] 100% | residual activity [13] 79% | residual activity [14] 96% | residual activity [15] 100% | residual activity [16] 100% | residual activity [17] 94% | residual activity [18] 81% | residual activity [19] 98% | residual activity [20] 87% | residual activity [21] 100% | residual activity [22] 75% | residual activity [23] 100% | residual activity [24] 96% | residual activity [25] 95% | residual activity [26] 80% | residual activity [27] 100% | residual activity [28] 100% | residual activity [29] 100% | residual activity [30] 83% | residual activity [31] 88% | residual activity [32] 87% | residual activity [33] 100% | residual activity [34] 88% | residual activity [35] 100% | residual activity [36] 100% | inhibition [37] 15% | inhibition [38] 6.23% | inhibition [39] 5.38%

Cn1cncc1[C@](O)(COc1ccc(C#N)cc1-c1ccc(OC(F)(F)F)cc1)c1ccc(C#N)cc1 [ABT-100]
inactive: residual activity [1] 91% | residual activity [2] 100% | residual activity [3] 100% | residual activity [4] 100% | residual activity [5] 84% | residual activity [6] 100% | residual activity [7] 82% | residual activity [8] 99% | residual activity [9] 98% | residual activity [10] 81% | residual activity [11] 85% | residual activity [12] 58% | residual activity [13] 100% | residual activity [14] 93% | residual activity [15] 77% | residual activity [16] 78% | residual activity [17] 76% | residual activity [18] 68% | residual activity [19] 55% | residual activity [20] 96% | residual activity [21] 89% | residual activity [22] 100% | residual activity [23] 94% | residual activity [24] 87% | residual activity [25] 89% | residual activity [26] 97% | residual activity [27] 96% | residual activity [28] 84% | residual activity [29] 93% | residual activity [30] 77% | residual activity [31] 94% | residual activity [32] 100% | residual activity [33] 82% | residual activity [34] 92% | residual activity [35] 61% | residual activity [36] 94% | inhibition [37] 9.15% | inhibition [38] -1.32% | inhibition [39] 14.4%

Reference: ChEMBL document CHEMBL4507257, “Data for DCP probe ABT-100” (2021)
